Values of other authors, collected in patent publication US20090181905A1, “CRYSTALLINE FORM OF 1' -(1-METHYLETHYL)-4' -[(2-FLUORO-4-METHOXYPHENYL)METHYL]-5' -METHYL-1H-PYRAZOL-3' -O-BETA-D-GLUCOPYRANOSIDE, A METHOD FOR ITS PREPARATION AND THE USE THEREOF FOR PREPARING MEDICAMENTS” (BOEHRINGER INGELHEIM INTERNATIONAL GMBH, priority 2006, published 2009).

System: HbA1c
Conditions: metformin on its own, in the diabetic

CN(C)C(=N)N=C(N)N [metformin]
average improvement in the HbA1c value: 1.0-1.5%
